Test results taken from the kinase profiling compilation of Christmann-Franck et al. (2016).

Experiments:
Test in all cases: radiometric filter-binding kinase assay, Kinase HotSpot
ULK1 (human) = ULK1 (human) (UniProt O75385); details: compound 0.5 µM; ATP 10 µM
GRK6 (human) = GRK6 (human) (UniProt P43250); details: compound 0.5 µM; ATP 10 µM
MAPK11 (human) = MAPK11 (human) (UniProt Q15759); details: compound 0.5 µM; ATP 10 µM
HIPK1 (human) = HIPK1 (human) (UniProt Q86Z02); details: compound 0.5 µM; ATP 10 µM
DYRK4 (human) = DYRK4 (human) (UniProt Q9NR20); details: compound 0.5 µM; ATP 10 µM
STK11 (human) = STK11 (human) (UniProt Q15831); details: compound 0.5 µM; ATP 10 µM
MAPK14 (human) = MAPK14 (human) (UniProt Q16539); details: compound 0.5 µM; ATP 10 µM
MAPK10 (human) = MAPK10 (human) (UniProt P53779); details: compound 0.5 µM; ATP 10 µM
MAP3K14 (human) = MAP3K14 (human) (UniProt Q99558); details: compound 0.5 µM; ATP 10 µM
PIM1 (human) = PIM1 (human) (UniProt P11309); details: compound 0.5 µM; ATP 10 µM
PRKCA (human) = PRKCA (human) (UniProt P17252); details: compound 0.5 µM; ATP 10 µM
MYLK (human) = MYLK (human) (UniProt Q15746); details: compound 0.5 µM
KDR (human) = KDR (human) (UniProt P35968); details: compound 0.5 µM; ATP 10 µM
WNK3 (human) = WNK3 (human) (UniProt Q9BYP7); details: compound 0.5 µM; ATP 10 µM
TEC (human) = TEC (human) (UniProt P42680); details: compound 0.5 µM; ATP 10 µM
PRKACA (human) = PRKACA (human) (UniProt P17612); details: compound 0.5 µM
CAMK2A (human) = CAMK2A (human) (UniProt Q9UQM7); details: compound 0.5 µM; ATP 10 µM
SGK3 (human) = SGK3 (human) (UniProt Q96BR1); details: compound 0.5 µM; ATP 10 µM
INSRR (human) = INSRR (human) (UniProt P14616); details: compound 0.5 µM; ATP 10 µM
SGK2 (human) = SGK2 (human) (UniProt Q9HBY8); details: compound 0.5 µM; ATP 10 µM
MAP3K2 (human) = MAP3K2 (human) (UniProt Q9Y2U5); details: compound 0.5 µM; ATP 10 µM
PRKD1 (human) = PRKD1 (human) (UniProt Q15139); details: compound 0.5 µM; ATP 10 µM
MARK3 (human) = MARK3 (human) (UniProt P27448); details: compound 0.5 µM; ATP 10 µM
RPS6KA6 KD1 KD2 (human) = RPS6KA6 KD1 KD2 (human) (UniProt Q9UK32); details: compound 0.5 µM; ATP 10 µM
CSF1R (human) = CSF1R (human) (UniProt P07333); details: compound 0.5 µM; ATP 10 µM
CDK2 CCNE1 (human) = CDK2 CCNE1 (human) (UniProt P24941+P24864); details: compound 0.5 µM
STK16 (human) = STK16 (human) (UniProt O75716); details: compound 0.5 µM; ATP 10 µM
NEK9 (human) = NEK9 (human) (UniProt Q8TD19); details: compound 0.5 µM; ATP 10 µM
EPHA5 (human) = EPHA5 (human) (UniProt P54756); details: compound 0.5 µM; ATP 10 µM
RPS6KA5 KD2 (human) = RPS6KA5 KD2 (human) (UniProt O75582); details: compound 0.5 µM; ATP 10 µM
CSNK1D (human) = CSNK1D (human) (UniProt P48730); details: compound 0.5 µM
PTK2B (human) = PTK2B (human) (UniProt Q14289); details: compound 0.5 µM; ATP 10 µM
PASK (human) = PASK (human) (UniProt Q96RG2); details: compound 0.5 µM; ATP 10 µM
PDPK1 (human) = PDPK1 (human) (UniProt O15530); details: compound 0.5 µM; ATP 10 µM
CAMK2G (human) = CAMK2G (human) (UniProt Q13555); details: compound 0.5 µM; ATP 10 µM
CDK6 CCND3 (human) = CDK6 CCND3 (human) (UniProt P30281+Q00534); details: compound 0.5 µM
ROCK2 (human) = ROCK2 (human) (UniProt O75116); details: compound 0.5 µM; ATP 10 µM
JAK3 JH1 JH2 (human) = JAK3 JH1 JH2 (human) (UniProt P52333); details: compound 0.5 µM; ATP 10 µM
MLTK (human) = MLTK (human) (UniProt Q9NYL2); details: compound 0.5 µM; ATP 10 µM
FGFR1 (human) = FGFR1 (human) (UniProt P11362); details: compound 0.5 µM; ATP 10 µM
NEK3 (human) = NEK3 (human) (UniProt P51956); details: compound 0.5 µM; ATP 10 µM
NEK11 (human) = NEK11 (human) (UniProt Q8NG66); details: compound 0.5 µM; ATP 10 µM
Sequence of NEK11 (human) (Q8NG66 whole entry, looked up): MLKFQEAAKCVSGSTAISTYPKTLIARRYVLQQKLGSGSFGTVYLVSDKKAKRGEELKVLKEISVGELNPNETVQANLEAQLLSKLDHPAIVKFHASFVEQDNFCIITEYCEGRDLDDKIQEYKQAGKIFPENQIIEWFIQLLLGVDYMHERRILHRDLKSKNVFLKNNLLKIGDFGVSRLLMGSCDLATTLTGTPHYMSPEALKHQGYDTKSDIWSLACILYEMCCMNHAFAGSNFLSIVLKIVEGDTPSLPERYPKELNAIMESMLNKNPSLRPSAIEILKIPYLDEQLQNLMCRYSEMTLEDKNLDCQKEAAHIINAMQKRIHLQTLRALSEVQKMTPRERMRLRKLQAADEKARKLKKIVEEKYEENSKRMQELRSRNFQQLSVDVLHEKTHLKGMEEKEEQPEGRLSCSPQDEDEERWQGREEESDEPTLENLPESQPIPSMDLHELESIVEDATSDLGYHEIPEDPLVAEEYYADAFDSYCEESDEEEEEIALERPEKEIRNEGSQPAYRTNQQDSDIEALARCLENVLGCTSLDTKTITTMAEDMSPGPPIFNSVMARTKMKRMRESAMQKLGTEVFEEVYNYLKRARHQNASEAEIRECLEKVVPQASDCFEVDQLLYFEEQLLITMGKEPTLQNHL

Sequence of MYLK (human) (Q15746 whole entry, looked up): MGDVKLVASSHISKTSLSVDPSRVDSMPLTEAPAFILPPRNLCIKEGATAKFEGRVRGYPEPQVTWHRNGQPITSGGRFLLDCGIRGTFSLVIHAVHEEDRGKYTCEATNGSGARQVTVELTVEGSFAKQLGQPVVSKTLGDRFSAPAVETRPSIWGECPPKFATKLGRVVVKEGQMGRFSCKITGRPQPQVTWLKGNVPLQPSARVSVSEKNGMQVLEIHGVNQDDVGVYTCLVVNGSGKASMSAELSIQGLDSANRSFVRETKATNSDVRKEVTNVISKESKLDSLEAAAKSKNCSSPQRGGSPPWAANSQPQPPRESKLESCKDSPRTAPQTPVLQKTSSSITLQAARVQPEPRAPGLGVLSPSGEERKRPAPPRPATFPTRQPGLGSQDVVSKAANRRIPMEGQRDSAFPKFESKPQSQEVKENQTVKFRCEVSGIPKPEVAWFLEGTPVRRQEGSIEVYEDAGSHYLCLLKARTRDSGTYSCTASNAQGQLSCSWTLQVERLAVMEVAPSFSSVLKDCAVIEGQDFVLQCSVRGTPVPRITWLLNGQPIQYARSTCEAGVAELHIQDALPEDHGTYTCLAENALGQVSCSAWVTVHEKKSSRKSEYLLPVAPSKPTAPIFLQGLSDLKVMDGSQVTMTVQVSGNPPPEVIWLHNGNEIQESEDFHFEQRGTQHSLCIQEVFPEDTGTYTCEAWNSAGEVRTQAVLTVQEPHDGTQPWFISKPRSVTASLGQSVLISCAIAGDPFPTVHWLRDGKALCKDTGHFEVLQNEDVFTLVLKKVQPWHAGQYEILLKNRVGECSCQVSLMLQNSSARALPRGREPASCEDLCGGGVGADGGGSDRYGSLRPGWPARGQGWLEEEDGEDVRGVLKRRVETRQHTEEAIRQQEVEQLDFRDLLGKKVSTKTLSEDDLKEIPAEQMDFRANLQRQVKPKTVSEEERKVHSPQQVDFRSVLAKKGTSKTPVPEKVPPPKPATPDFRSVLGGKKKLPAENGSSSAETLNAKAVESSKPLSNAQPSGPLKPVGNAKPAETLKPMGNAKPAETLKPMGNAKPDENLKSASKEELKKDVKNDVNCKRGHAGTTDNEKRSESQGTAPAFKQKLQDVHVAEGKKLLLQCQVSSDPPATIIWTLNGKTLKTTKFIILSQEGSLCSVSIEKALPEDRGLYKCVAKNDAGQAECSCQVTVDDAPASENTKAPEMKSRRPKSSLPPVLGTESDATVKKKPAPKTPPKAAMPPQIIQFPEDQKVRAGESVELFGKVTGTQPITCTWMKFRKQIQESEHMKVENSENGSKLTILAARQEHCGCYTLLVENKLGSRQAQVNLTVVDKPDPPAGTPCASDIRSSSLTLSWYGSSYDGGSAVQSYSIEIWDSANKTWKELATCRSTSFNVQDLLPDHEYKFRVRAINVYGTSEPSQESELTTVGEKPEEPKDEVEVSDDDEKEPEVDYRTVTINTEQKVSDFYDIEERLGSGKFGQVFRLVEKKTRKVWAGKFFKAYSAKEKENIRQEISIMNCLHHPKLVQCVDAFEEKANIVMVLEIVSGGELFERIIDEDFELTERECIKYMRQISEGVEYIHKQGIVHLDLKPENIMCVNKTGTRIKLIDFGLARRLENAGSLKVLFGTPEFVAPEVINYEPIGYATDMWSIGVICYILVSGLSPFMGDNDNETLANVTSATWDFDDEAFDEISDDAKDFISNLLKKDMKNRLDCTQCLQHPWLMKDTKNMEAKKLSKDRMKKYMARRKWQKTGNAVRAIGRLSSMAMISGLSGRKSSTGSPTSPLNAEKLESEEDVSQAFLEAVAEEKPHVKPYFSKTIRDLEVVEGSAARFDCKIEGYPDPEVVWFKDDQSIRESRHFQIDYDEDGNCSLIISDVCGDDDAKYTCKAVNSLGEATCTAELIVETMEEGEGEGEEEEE
Sequence of PDPK1 (human) (O15530 whole entry, looked up): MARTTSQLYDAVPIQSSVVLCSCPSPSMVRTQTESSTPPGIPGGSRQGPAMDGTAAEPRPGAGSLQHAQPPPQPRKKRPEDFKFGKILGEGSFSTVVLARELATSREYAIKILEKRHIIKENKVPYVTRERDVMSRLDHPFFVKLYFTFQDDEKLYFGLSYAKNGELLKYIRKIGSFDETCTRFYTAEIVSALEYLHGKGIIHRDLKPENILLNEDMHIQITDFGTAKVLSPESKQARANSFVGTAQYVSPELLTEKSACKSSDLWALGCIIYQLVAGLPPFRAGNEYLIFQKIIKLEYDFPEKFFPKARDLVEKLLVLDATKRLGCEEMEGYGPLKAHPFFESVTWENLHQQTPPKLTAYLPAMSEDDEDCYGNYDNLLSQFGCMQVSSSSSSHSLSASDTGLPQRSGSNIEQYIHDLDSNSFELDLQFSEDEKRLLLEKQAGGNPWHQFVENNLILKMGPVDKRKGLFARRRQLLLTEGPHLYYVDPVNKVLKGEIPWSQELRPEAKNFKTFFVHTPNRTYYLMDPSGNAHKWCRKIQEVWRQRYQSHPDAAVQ
Sequence of PIM1 (human) (P11309 whole entry, looked up): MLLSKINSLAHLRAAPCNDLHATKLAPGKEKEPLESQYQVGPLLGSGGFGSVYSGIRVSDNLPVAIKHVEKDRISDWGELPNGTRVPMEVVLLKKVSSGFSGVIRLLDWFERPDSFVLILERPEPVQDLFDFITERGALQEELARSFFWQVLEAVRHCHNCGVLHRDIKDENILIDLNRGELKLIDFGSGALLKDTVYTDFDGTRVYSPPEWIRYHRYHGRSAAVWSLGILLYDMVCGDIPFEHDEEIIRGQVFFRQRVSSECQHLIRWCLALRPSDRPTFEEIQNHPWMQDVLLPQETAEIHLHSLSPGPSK
Sequence of NEK3 (human) (P51956 whole entry, looked up): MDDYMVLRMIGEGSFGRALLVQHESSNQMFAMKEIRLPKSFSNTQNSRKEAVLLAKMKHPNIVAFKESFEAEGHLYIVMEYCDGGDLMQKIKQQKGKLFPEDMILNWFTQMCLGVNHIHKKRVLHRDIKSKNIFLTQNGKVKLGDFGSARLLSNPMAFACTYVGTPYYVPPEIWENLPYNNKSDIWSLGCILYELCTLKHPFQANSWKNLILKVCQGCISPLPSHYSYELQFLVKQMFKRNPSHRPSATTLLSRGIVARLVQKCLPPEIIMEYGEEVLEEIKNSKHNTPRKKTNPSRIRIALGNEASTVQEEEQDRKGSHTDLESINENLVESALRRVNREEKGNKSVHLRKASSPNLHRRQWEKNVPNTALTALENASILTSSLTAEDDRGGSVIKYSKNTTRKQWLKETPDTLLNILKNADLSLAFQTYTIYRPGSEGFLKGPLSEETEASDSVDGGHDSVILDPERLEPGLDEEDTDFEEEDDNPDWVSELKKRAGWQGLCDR
Sequence of DYRK4 (human) (Q9NR20 whole entry, looked up): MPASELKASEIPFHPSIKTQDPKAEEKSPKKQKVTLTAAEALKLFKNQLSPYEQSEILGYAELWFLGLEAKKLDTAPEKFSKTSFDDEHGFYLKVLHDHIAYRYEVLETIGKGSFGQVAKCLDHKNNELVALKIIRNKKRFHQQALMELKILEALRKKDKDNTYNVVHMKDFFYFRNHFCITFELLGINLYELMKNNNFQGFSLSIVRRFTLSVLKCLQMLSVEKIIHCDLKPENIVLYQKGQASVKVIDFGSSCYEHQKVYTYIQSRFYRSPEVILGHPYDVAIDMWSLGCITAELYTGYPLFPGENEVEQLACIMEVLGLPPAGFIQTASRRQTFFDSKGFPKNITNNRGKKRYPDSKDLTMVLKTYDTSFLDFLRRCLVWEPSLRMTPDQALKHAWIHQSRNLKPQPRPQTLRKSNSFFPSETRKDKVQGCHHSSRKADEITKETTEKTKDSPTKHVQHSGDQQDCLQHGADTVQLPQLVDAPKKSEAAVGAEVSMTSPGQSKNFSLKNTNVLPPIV
Sequence of CSNK1D (human) (P48730 whole entry, looked up): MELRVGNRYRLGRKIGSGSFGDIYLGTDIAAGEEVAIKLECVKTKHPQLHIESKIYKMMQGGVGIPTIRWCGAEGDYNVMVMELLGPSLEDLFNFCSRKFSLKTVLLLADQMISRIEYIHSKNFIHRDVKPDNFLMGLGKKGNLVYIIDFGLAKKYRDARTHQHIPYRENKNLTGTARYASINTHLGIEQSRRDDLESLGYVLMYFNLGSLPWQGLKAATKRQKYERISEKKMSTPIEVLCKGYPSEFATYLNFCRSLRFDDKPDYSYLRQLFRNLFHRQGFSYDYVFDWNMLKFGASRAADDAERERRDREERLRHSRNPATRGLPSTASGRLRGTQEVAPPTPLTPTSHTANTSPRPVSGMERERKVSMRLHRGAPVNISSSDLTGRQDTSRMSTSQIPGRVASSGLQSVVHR

Cn1cc(/C=C2\C(=O)Nc3ccc(S(N)(=O)=O)cc32)c2ccccc21
residual activity (ULK1 (human)): 27.5% | residual activity (GRK6 (human)): 47.2% | residual activity (MAPK11 (human)): 93.8% | residual activity (HIPK1 (human)): 97.2% | residual activity (DYRK4 (human)): 73.7% | residual activity (STK11 (human)): 68.2% | residual activity (MAPK14 (human)): 123% | residual activity (MAPK10 (human)): 93.1% | residual activity (MAP3K14 (human)): 123% | residual activity (PIM1 (human)): 96.5% | residual activity (PRKCA (human)): 123% | residual activity (MYLK (human); ATP 10 µM): 95% | residual activity (KDR (human)): 74.3% | residual activity (WNK3 (human)): 99% | residual activity (TEC (human)): 157% | residual activity (PRKACA (human); ATP 10 µM): 104% | residual activity (CAMK2A (human)): 57.6% | residual activity (SGK3 (human)): 94.7% | residual activity (INSRR (human)): 86.9% | residual activity (SGK2 (human)): 80.7% | residual activity (MAP3K2 (human)): 92.1% | residual activity (PRKD1 (human)): 80% | residual activity (MARK3 (human)): 57.2% | residual activity (RPS6KA6 KD1 KD2 (human)): 6.55% | residual activity (CSF1R (human)): 82.5% | residual activity (CDK2 CCNE1 (human); ATP 10 µM): 77.9% | residual activity (STK16 (human)): 78.7% | residual activity (NEK9 (human)): 67.3% | residual activity (EPHA5 (human)): 69.3% | residual activity (RPS6KA5 KD2 (human)): 80.9% | residual activity (CSNK1D (human); ATP 10 µM): 102% | residual activity (PTK2B (human)): 43.1% | residual activity (PASK (human)): 84.8% | residual activity (PDPK1 (human)): 95% | residual activity (CAMK2G (human)): 91.9% | residual activity (CDK6 CCND3 (human); ATP 10 µM): 81.4% | residual activity (ROCK2 (human)): 41% | residual activity (JAK3 JH1 JH2 (human)): 43.7% | residual activity (MLTK (human)): 95% | residual activity (FGFR1 (human)): 50.2% | residual activity (NEK3 (human)): 66.2% | residual activity (NEK11 (human)): 96.1%

O=c1[nH]c2ccccc2n1C1CCN(Cc2ccc(-c3nc4cc5[nH]cnc5cc4nc3-c3ccccc3)cc2)CC1
residual activity (ULK1 (human)): 96.7% | residual activity (GRK6 (human)): 88% | residual activity (MAPK11 (human)): 102% | residual activity (HIPK1 (human)): 106% | residual activity (DYRK4 (human)): 109% | residual activity (STK11 (human)): 95.6% | residual activity (MAPK14 (human)): 99.7% | residual activity (MAPK10 (human)): 96% | residual activity (MAP3K14 (human)): 96.8% | residual activity (PIM1 (human)): 106% | residual activity (PRKCA (human)): 84.3% | residual activity (MYLK (human)): 104% | residual activity (KDR (human)): 90.9% | residual activity (WNK3 (human)): 106% | residual activity (TEC (human)): 162% | residual activity (PRKACA (human)): 106% | residual activity (CAMK2A (human)): 109% | residual activity (SGK3 (human)): 108% | residual activity (INSRR (human)): 101% | residual activity (SGK2 (human)): 112% | residual activity (MAP3K2 (human)): 92.4% | residual activity (PRKD1 (human)): 94.7% | residual activity (MARK3 (human)): 103% | residual activity (RPS6KA6 KD1 KD2 (human)): 109% | residual activity (CSF1R (human)): 97% | residual activity (CDK2 CCNE1 (human)): 95.6% | residual activity (STK16 (human)): 99.5% | residual activity (NEK9 (human)): 99.2% | residual activity (EPHA5 (human)): 102% | residual activity (RPS6KA5 KD2 (human)): 103% | residual activity (CSNK1D (human)): 100% | residual activity (PTK2B (human)): 105% | residual activity (PASK (human)): 110% | residual activity (PDPK1 (human)): 107% | residual activity (CAMK2G (human)): 105% | residual activity (CDK6 CCND3 (human)): 99.1% | residual activity (ROCK2 (human)): 109% | residual activity (JAK3 JH1 JH2 (human)): 100% | residual activity (MLTK (human)): 106% | residual activity (FGFR1 (human)): 102% | residual activity (NEK3 (human)): 97.2% | residual activity (NEK11 (human)): 86.4%
